Source: patent US12447156B2, “Treating progressive familial intrahepatic cholestasis (PFIC) with IBAT inhibitors” (ALBIREO AB, priority 2020, dated 2025)

System: patients with PFIC with prior PEBD surgery
Test: PEDFIC 1/2 post hoc subgroup: patients with prior partial external biliary diversion (PEBD)
Format: in vivo, human
Procedure: One surgical treatment option for patients with PFIC is partial external biliary diversion (PEBD), which can be used to reduce bile acid levels in patients with medically refractory pruritus. However, PEBD is not successful in all patients. […] This post hoc subgroup analysis evaluated the safety and efficacy of odevixibat in patients enrolled in the PEDFIC studies who had PEBD surgery prior to study entry.
In the double-blind PEDFIC 1 study, children with PFIC1 or PFIC2 were randomized to placebo or 40 or 120 μg/kg/day odevixibat for 24 weeks. In PEDFIC 2, an ongoing, open-label extension study, patients from PEDFIC 1 or newly enrolled patients with any PFIC subtype receive odevixibat 120 μg/kg/day. In both PEDFIC 1 and PEDFIC 2, eligible patients had elevated sBAs and significant pruritus at screening. Changes over time in sBA levels and observer-reported pruritus (range: 0-4; higher scores indicate worse symptoms), sleep parameters, and quality of life (QoL; assessed with the Pediatric Quality of Life Inventory [PedsQL]) were evaluated in the subgroup of patients from PEDFIC 1 and/or PEDFIC 2 with a medical history of PEBD surgery performed prior to study enrollment.

[1] = of 10 patients with prior PEBD surgery

CCCCC1(CCCC)CN(c2ccccc2)c2cc(SC)c(OCC(=O)N[C@@H](C(=O)N[C@@H](CC)C(=O)O)c3ccc(O)cc3)cc2S(=O)(=O)N1 [Odevixibat, 1,1-dioxo-3,3-dibutyl-5-phenyl-7-methylthio-8-(N-{(R)-α-[N-((S)-1-carboxypropyl)carbamoyl]-4-hydroxybenzyl}carbamoylmethoxy)-2,3,4,5-tetrahydro-1,2,5-benzothiadiazepine]
Pruritus Responder? (Patient 1 (prior PEBD, PFIC2; PEDFIC 1 placebo, PEDFIC 2 120 μg/kg/d; 42 weeks exposure)): N (N, no) | Change From Baseline in Pruritus Score (Patient 1 (prior PEBD, PFIC2; PEDFIC 1 placebo, PEDFIC 2 120 μg/kg/d; 42 weeks exposure), baseline 1.9): 0.1 | Change From Baseline in sBAs (Patient 1 (prior PEBD, PFIC2; PEDFIC 1 placebo, PEDFIC 2 120 μg/kg/d; 42 weeks exposure), baseline 172): -18 µmol/L | Pruritus Responder? (Patient 2 (prior PEBD, PFIC1; PEDFIC 1 placebo, PEDFIC 2 120 μg/kg/d; 35 weeks exposure)): N (N, no) | Change From Baseline in Pruritus Score (Patient 2 (prior PEBD, PFIC1; PEDFIC 1 placebo, PEDFIC 2 120 μg/kg/d; 35 weeks exposure), baseline 3.8): −0.9 | Change From Baseline in sBAs (Patient 2 (prior PEBD, PFIC1; PEDFIC 1 placebo, PEDFIC 2 120 μg/kg/d; 35 weeks exposure), baseline 225): -69.5 µmol/L | Pruritus Responder? (Patient 3 (prior PEBD, PFIC1; PEDFIC 1 40 μg/kg/d, PEDFIC 2 120 μg/kg/d; 44 weeks exposure)): Y (≥1-point drop in pruritus score at last assessment) | Change From Baseline in Pruritus Score (Patient 3 (prior PEBD, PFIC1; PEDFIC 1 40 μg/kg/d, PEDFIC 2 120 μg/kg/d; 44 weeks exposure), baseline 3.0): −2.1 | Change From Baseline in sBAs (Patient 3 (prior PEBD, PFIC1; PEDFIC 1 40 μg/kg/d, PEDFIC 2 120 μg/kg/d; 44 weeks exposure), baseline 193): 197 µmol/L | Pruritus Responder? (Patient 4 (prior PEBD, PFIC1; PEDFIC 1 40 μg/kg/d, PEDFIC 2 120 μg/kg/d; 55 weeks exposure)): Y (≥1-point drop in pruritus score at last assessment) | Change From Baseline in Pruritus Score (Patient 4 (prior PEBD, PFIC1; PEDFIC 1 40 μg/kg/d, PEDFIC 2 120 μg/kg/d; 55 weeks exposure), baseline 3.0): −1.5 | Change From Baseline in sBAs (Patient 4 (prior PEBD, PFIC1; PEDFIC 1 40 μg/kg/d, PEDFIC 2 120 μg/kg/d; 55 weeks exposure), baseline 163): -53.5 µmol/L | Pruritus Responder? (Patient 5 (prior PEBD, PFIC2; 120 μg/kg/d in PEDFIC 1 and 2; 53 weeks exposure)): N (N, no) | Change From Baseline in Pruritus Score (Patient 5 (prior PEBD, PFIC2; 120 μg/kg/d in PEDFIC 1 and 2; 53 weeks exposure), baseline 2.8): 0.3 | Change From Baseline in sBAs (Patient 5 (prior PEBD, PFIC2; 120 μg/kg/d in PEDFIC 1 and 2; 53 weeks exposure), baseline 156.5): -11.5 µmol/L | Pruritus Responder? (Patient 6 (prior PEBD, PFIC2; 120 μg/kg/d in PEDFIC 1 and 2; 44 weeks exposure)): N (N, no) | Change From Baseline in Pruritus Score (Patient 6 (prior PEBD, PFIC2; 120 μg/kg/d in PEDFIC 1 and 2; 44 weeks exposure), baseline 3.0): 0.0 | Change From Baseline in sBAs (Patient 6 (prior PEBD, PFIC2; 120 μg/kg/d in PEDFIC 1 and 2; 44 weeks exposure), baseline 237): 103 µmol/L | Pruritus Responder? (Patient 7 (prior PEBD, PFIC2; 120 μg/kg/d in PEDFIC 1 and 2; 54 weeks exposure, discontinued)): N (N, no) | Change From Baseline in Pruritus Score (Patient 7 (prior PEBD, PFIC2; 120 μg/kg/d in PEDFIC 1 and 2; 54 weeks exposure, discontinued), baseline 2.9): −0.3 | Change From Baseline in sBAs (Patient 7 (prior PEBD, PFIC2; 120 μg/kg/d in PEDFIC 1 and 2; 54 weeks exposure, discontinued), baseline 208): 178 µmol/L | Pruritus Responder? (Patient 8 (prior PEBD, PFIC1; 120 μg/kg/d in PEDFIC 1 and 2; 47 weeks exposure)): Y (≥1-point drop in pruritus score at last assessment) | Change From Baseline in Pruritus Score (Patient 8 (prior PEBD, PFIC1; 120 μg/kg/d in PEDFIC 1 and 2; 47 weeks exposure), baseline 2.0): −2.1 | Change From Baseline in sBAs (Patient 8 (prior PEBD, PFIC1; 120 μg/kg/d in PEDFIC 1 and 2; 47 weeks exposure), baseline 188.5): 61.5 µmol/L | Pruritus Responder? (Patient 9 (prior PEBD, PFIC1; PEDFIC 2 only, 120 μg/kg/d; 25 weeks exposure)): N (N, no) | Change From Baseline in Pruritus Score (Patient 9 (prior PEBD, PFIC1; PEDFIC 2 only, 120 μg/kg/d; 25 weeks exposure), baseline 2.0): −0.5 | Change From Baseline in sBAs (Patient 9 (prior PEBD, PFIC1; PEDFIC 2 only, 120 μg/kg/d; 25 weeks exposure), baseline 139.5): 8.5 µmol/L | Pruritus Responder? (Patient 10 (prior PEBD, PFIC2; PEDFIC 2 only, 120 μg/kg/d; 35 weeks exposure)): Y (≥1-point drop in pruritus score at last assessment) | Change From Baseline in Pruritus Score (Patient 10 (prior PEBD, PFIC2; PEDFIC 2 only, 120 μg/kg/d; 35 weeks exposure), baseline 2.5): −1.5 | Change From Baseline in sBAs (Patient 10 (prior PEBD, PFIC2; PEDFIC 2 only, 120 μg/kg/d; 35 weeks exposure), baseline 79.5): -70.5 µmol/L | patients who met criteria for pruritus response (≥1-point drop) [1]: 4 patients | patients with reductions in pruritus score [1]: 7 patients | patients with reductions in sBA levels [1]: 5 patients | patients who met criteria for sBA response (reduced by ≥70% or ≤70 μmol/L) (of 10 patients with prior PEBD surgery, last assessment): 1 patient | patients with improved observer-reported PedsQL total scores (of the 9 prior-PEBD patients with post-baseline QoL assessments): 6 patients | tolerability (patients with prior PEBD surgery): generally well tolerated | patients with TEAEs (prior PEBD subgroup, 9 of 10 patients, all mild to moderate): 90%
